Source: patent US3954733A, “Naphthyridine-3-carboxamido-benzylpenicillins and salts thereof” (Sumitomo Chemical Company, Limited, priority 1973, dated 1976)
≈ marks a conversion by molar mass, not a printed value.

Assays:
Experiment in all cases: minimal inhibitory concentration, agar dilution method
Type in all cases: cell-based
Proteus vulgaris HV19 = tested on: Proteus vulgaris HV19
Proteus miravilis GN2425 = tested on: Proteus miravilis GN2425
[1] = tested on: Staphylococcus aureus 209P
Text: (§1) When determined according to the agar dilution method, the penicillins (I) afford the minimal inhibitory concentrations against test microorganisms as shown in Table 2.

[2] = tested on: Pseudomonas aeruginosa 104
Text: as §1

Escherichia coli NIHJ = tested on: Escherichia coli NIHJ
Text: as §1

| Structure (SMILES) | MIC (Proteus vulgaris HV19) [µg/mL] | MIC (Proteus miravilis GN2425) [µg/mL] | MIC [1] [µg/mL] | MIC [2] [µg/mL] | MIC (Escherichia coli NIHJ) [µg/mL] |
| --- | --- | --- | --- | --- | --- |
| CCOC(=O)Oc1c(C(=O)N[C@@H](C(=O)N[C@@H]2C(=O)N3[C@@H]2SC(C)(C)[C@@H]3C(=O)O)c2ccc(OC(=O)OCc3ccccc3)cc2)cnc2cccnc12 [Example 5, D-α-(4-ethoxycarbonyloxy-1,5-naphthyridine-3-carboxamido)-p-benzyloxycarbonyloxybenzylpenicillin] | 0.05 (≈ 0.0672 µM) | 3.13 (≈ 4.21 µM) | 1.56 (≈ 2.1 µM) | 3.13 (≈ 4.21 µM) | 3.13 (≈ 4.21 µM) |
| Cc1ccc2c(O)c(C(=O)N[C@@H](C(=O)N[C@@H]3C(=O)N4[C@@H]3SC(C)(C)[C@@H]4C(=O)O)c3ccc(O)cc3)cnc2n1 [Example 7, D-α-(4-hydroxy-7-methyl-1,8-naphthyridine-3-carboxamido)-p-hydroxybenzylpenicillin] | 0.05 (≈ 0.0906 µM) | 3.13 (≈ 5.67 µM) | 0.78 (≈ 1.41 µM) | 1.56 (≈ 2.83 µM) | 1.56 (≈ 2.83 µM) |
| CCOC(=O)Oc1ccc([C@@H](NC(=O)c2cnc3cccnc3c2O)C(=O)N[C@@H]2C(=O)N3[C@@H]2SC(C)(C)[C@@H]3C(=O)O)cc1 [Example 9, D-α-(4-hydroxy-1,5-naphthyridine-3-carboxamido)-p-ethoxycarbonyloxybenzylpenicillin] | 0.05 (≈ 0.082 µM) | 3.13 (≈ 5.13 µM) | 1.56 (≈ 2.56 µM) | 3.13 (≈ 5.13 µM) | 3.13 (≈ 5.13 µM) |
| CCOC(=O)Oc1ccc([C@@H](NC(=O)c2cnc3ccccc3c2OC(=O)OCC)C(=O)N[C@@H]2C(=O)N3[C@@H]2SC(C)(C)[C@@H]3C(=O)O)cc1 [Example 12] | 0.2 (≈ 0.294 µM) | 3.13 (≈ 4.6 µM) | 0.78 (≈ 1.15 µM) | 6.25 (≈ 9.18 µM) | 3.13 (≈ 4.6 µM) |
| CC1(C)S[C@@H]2[C@H](NC(=O)[C@H](NC(=O)c3cnc4ccccc4c3O)c3cccc(O)c3)C(=O)N2[C@H]1C(=O)O [Example 13] | 0.2 (≈ 0.373 µM) | 3.13 (≈ 5.83 µM) | 0.78 (≈ 1.45 µM) | 6.25 (≈ 11.6 µM) | 6.25 (≈ 11.6 µM) |
| CCOC(=O)Oc1ccc([C@@H](NC(=O)c2cnc3nc(C)ccc3c2O)C(=O)N[C@@H]2C(=O)N3[C@@H]2SC(C)(C)[C@@H]3C(=O)O)cc1 [Example 15] | 0.1 (≈ 0.16 µM) | 6.25 (≈ 10 µM) | 1.56 (≈ 2.5 µM) | 3.13 (≈ 5.02 µM) | 3.13 (≈ 5.02 µM) |
| CC1(C)S[C@@H]2[C@H](NC(=O)C(NC(=O)c3cnc4cccnc4c3O)c3cccc(O)c3)C(=O)N2[C@H]1C(=O)O (some centres unmarked) [Example 16] | 0.05 (≈ 0.093 µM) | 3.13 (≈ 5.82 µM) | 1.56 (≈ 2.9 µM) | 3.13 (≈ 5.82 µM) | 3.13 (≈ 5.82 µM) |
| CCOC(=O)Oc1ccc([C@@H](NC(=O)c2cnc3ccc(SC)nc3c2O)C(=O)N[C@@H]2C(=O)N3[C@@H]2SC(C)(C)[C@@H]3C(=O)O)cc1 [Example 17] | 0.1 (≈ 0.153 µM) | 1.56 (≈ 2.38 µM) | 0.78 (≈ 1.19 µM) | 1.56 (≈ 2.38 µM) | 1.56 (≈ 2.38 µM) |
| Cc1ccc2ncc(C(=O)N[C@@H](C(=O)N[C@@H]3C(=O)N4[C@@H]3SC(C)(C)[C@@H]4C(=O)O)c3ccc(O)cc3)c(O)c2n1 [Example 18] | 0.05 (≈ 0.0906 µM) | 1.56 (≈ 2.83 µM) | 0.78 (≈ 1.41 µM) | 1.56 (≈ 2.83 µM) | 1.56 (≈ 2.83 µM) |
| COc1ccc2ncc(C(=O)N[C@@H](C(=O)N[C@@H]3C(=O)N4[C@@H]3SC(C)(C)[C@@H]4C(=O)O)c3ccc(O)cc3)c(O)c2n1 [Example 19] | 0.05 (≈ 0.0881 µM) | 3.13 (≈ 5.51 µM) | 0.78 (≈ 1.37 µM) | 3.13 (≈ 5.51 µM) | 3.13 (≈ 5.51 µM) |
| CC1(C)S[C@@H]2[C@H](NC(=O)[C@H](NC(=O)c3cnc4ccc(O)nc4c3O)c3ccc(O)cc3)C(=O)N2[C@H]1C(=O)O [Example 22] | 0.05 (≈ 0.0903 µM) | 1.56 (≈ 2.82 µM) | 0.78 (≈ 1.41 µM) | 3.13 (≈ 5.65 µM) | 1.56 (≈ 2.82 µM) |
| CCOC(=O)Oc1ccc([C@@H](NC(=O)c2cnc3ccc(NC(C)=O)nc3c2O)C(=O)N[C@@H]2C(=O)N3[C@@H]2SC(C)(C)[C@@H]3C(=O)O)cc1 [Example 23] | 0.2 (≈ 0.3 µM) | 3.13 (≈ 4.69 µM) | 1.56 (≈ 2.34 µM) | 3.13 (≈ 4.69 µM) | 3.13 (≈ 4.69 µM) |
| CC1(C)S[C@@H]2[C@H](NC(=O)[C@H](NC(=O)c3cnc4ccc(N)nc4c3O)c3ccc(O)cc3)C(=O)N2[C@H]1C(=O)O [Example 24] | 0.05 (≈ 0.0905 µM) | 3.13 (≈ 5.66 µM) | 1.56 (≈ 2.82 µM) | 3.13 (≈ 5.66 µM) | 1.56 (≈ 2.82 µM) |
